pKd: −log10 of the molar value. Values after ≈ are worked out from the molar mass of the structure shown. Active and inactive are the calls of the source. The rule behind the calls is not given here.
Tests used:
Klebsiella pneumoniae [1] = assay: Antibacterial activity against wild-type Klebsiella pneumoniae ATCC 13883 assessed as inhibition of bacterial growth incubated for 18 hrs; type: functional; conditions: read-out: MIC100
Escherichia coli [2] = assay: Antibacterial activity against Escherichia coli ATCC 25922 harboring tolC knock-out assessed as inhibition of bacterial growth incubated for 18 hrs; type: functional; conditions: read-out: MIC100
Staphylococcus aureus [3] = assay: Antibacterial activity against […] assessed as inhibition of bacterial growth incubated for 18 hrs; type: functional; conditions: ATCC 29213, read-out: MIC100
[4] = Chemical stability of compound at pH 7.4; type: physicochemical; conditions: buffer
[5] = Chemical stability of compound in glutathione; type: physicochemical
[6] = Hepatotoxicity in cryopreserved rat primary hepatocytes; type: toxicity, cell-based, Hepatocyte
Cytochrome P450 3A4 [7] = biological target: T1, Cytochrome P450 3A4 (Homo sapiens, UniProt P08684); assay: Induction of CYP3A4 (unknown origin); type: ADME
Cytochrome P450 3A4 [8] = biological target: T1, Cytochrome P450 3A4; assay: Inhibition of CYP3A4 (unknown origin); type: ADME
Cytochrome P450 2B6 = biological target: T2, Cytochrome P450 2B6 (Homo sapiens, UniProt P20813); assay: Inhibition of CYP2B6 (unknown origin); type: ADME
T2 sequence (P20813 whole entry): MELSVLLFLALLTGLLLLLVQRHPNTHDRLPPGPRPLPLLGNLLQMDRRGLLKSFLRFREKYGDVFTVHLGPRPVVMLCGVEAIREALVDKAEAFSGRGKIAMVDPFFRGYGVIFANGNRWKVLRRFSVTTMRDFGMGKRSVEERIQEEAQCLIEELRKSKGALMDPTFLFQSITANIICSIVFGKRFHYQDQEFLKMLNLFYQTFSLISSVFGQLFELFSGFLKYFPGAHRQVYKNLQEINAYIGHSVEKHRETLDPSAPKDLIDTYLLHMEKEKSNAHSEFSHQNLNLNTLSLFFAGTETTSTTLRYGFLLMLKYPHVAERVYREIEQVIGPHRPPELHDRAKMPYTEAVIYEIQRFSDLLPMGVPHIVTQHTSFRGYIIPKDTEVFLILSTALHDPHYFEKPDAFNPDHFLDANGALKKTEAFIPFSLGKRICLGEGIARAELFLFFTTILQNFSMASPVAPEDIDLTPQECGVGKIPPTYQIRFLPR

Cytochrome P450 1A2 = biological target: T3, Cytochrome P450 1A2 (Homo sapiens, UniProt P05177); assay: Inhibition of CYP1A2 (unknown origin); type: ADME
T3 sequence (P05177 whole entry): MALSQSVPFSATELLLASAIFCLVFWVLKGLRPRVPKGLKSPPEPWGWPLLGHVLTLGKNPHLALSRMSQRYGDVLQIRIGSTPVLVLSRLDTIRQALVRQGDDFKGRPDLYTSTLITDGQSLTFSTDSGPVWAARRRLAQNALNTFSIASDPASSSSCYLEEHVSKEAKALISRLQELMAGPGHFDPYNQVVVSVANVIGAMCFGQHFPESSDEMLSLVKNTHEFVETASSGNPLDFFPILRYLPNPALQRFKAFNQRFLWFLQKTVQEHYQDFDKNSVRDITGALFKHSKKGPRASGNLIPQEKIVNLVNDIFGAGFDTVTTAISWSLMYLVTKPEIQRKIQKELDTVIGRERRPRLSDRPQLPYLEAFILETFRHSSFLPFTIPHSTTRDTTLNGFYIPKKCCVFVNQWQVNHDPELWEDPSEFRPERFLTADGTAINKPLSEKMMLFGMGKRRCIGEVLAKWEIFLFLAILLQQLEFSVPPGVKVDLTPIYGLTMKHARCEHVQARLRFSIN

[9] = Clearance in mouse microsomes; type: ADME, Microsome
[10] = Clearance in rat microsomes; type: ADME, Microsome
[11] = Clearance in human microsomes; type: ADME, Microsome
[12] = Cmax in Swiss mouse plasma at 10 mg/kg, iv administered as single bolus dose and measured upto 24 hrs by LC-MS/MS analysis; type: ADME, organism-based
[13] = Cmax in Swiss mouse lung at 10 mg/kg, iv administered as single bolus dose and measured upto 24 hrs by LC-MS/MS analysis; type: ADME, organism-based
[14] = AUClast in Swiss mouse plasma at 10 mg/kg, iv administered as single bolus dose and measured upto 24 hrs by LC-MS/MS analysis; type: ADME, organism-based
[15] = Observed clearance in Swiss mouse at 10 mg/kg, iv administered as single bolus dose and measured upto 24 hrs by LC-MS/MS analysis; type: ADME, organism-based; conditions: in vivo
[16] = Volume of distribution at steady state in Swiss mouse at 10 mg/kg, iv administered as single bolus dose and measured upto 24 hrs by LC-MS/MS analysis; type: ADME, organism-based; conditions: in vivo, read-out: Vdss
Citrobacter freundii = assay: Antibacterial activity against Citrobacter freundii ATCC 8090 assessed as inhibition of bacterial growth incubated for 18 hrs; type: functional; conditions: read-out: MIC100
Klebsiella pneumoniae [17] = assay: Antibacterial activity against Klebsiella pneumoniae ATCC BAA-2470 expressing NDM-1 assessed as inhibition of bacterial growth incubated for 18 hrs; type: functional; conditions: read-out: MIC100
Klebsiella aerogenes = assay: Antibacterial activity against Enterobacter aerogenes ATCC 13048 assessed as inhibition of bacterial growth incubated for 18 hrs; type: functional; conditions: read-out: MIC100
Escherichia coli [18] = assay: Antibacterial activity against Escherichia coli ATCC BAA-2469 expressing NDM-1 assessed as inhibition of bacterial growth incubated for 18 hrs; type: functional; conditions: read-out: MIC100
Morganella morganii = assay: Antibacterial activity against Morganella morganii ATCC 25830 assessed as inhibition of bacterial growth incubated for 18 hrs; type: functional; conditions: read-out: MIC100
Proteus mirabilis = assay: Antibacterial activity against Proteus mirabilis ATCC 25933 assessed as inhibition of bacterial growth incubated for 18 hrs; type: functional; conditions: read-out: MIC100
Staphylococcus aureus [19] = assay: Antibacterial activity against wild type Staphylococcus aureus USA300 assessed as inhibition of bacterial growth incubated for 18 hrs; type: functional; conditions: read-out: MIC100
Escherichia coli [20] = assay: Antibacterial activity against Escherichia coli ATCC 25922 assessed as inhibition of bacterial growth incubated for 18 hrs in presence of 150 mM NaCl; type: functional, organism-based
Escherichia coli [21] = assay: Antibacterial activity against Escherichia coli ATCC 25922 assessed as inhibition of bacterial growth incubated for 18 hrs in presence of 2 mM CaCl2; type: functional, organism-based
Klebsiella pneumoniae [22] = assay: Antibacterial activity against Klebsiella pneumoniae ATCC 13883 assessed as inhibition of bacterial growth incubated for 18 hrs in presence of 5 mM KCl; type: functional, organism-based
Klebsiella pneumoniae [23] = assay: Antibacterial activity against Klebsiella pneumoniae ATCC 13883 assessed as inhibition of bacterial growth incubated for 18 hrs in presence of 2 mM CaCl2; type: functional, organism-based
Klebsiella pneumoniae [24] = assay: Antibacterial activity against Klebsiella pneumoniae ATCC 13883 assessed as inhibition of bacterial growth incubated for 18 hrs in presence of 2 mM MgCl2; type: functional, organism-based
Klebsiella pneumoniae [25] = assay: Antibacterial activity against Klebsiella pneumoniae ATCC 13883 assessed as inhibition of bacterial growth incubated for 18 hrs in presence of 25 mM bicarbonate; type: functional, organism-based
Lipopolysaccharide (LPS) = assay: Binding affinity to Escherichia coli O55:B5 LPS assessed as dissociation constant by ITC analysis; type: subcellular
Cell membrane = assay: Induction of membrane permeabilization in Escherichia coli ATCC 25922 at 32 to 64 ug/ml measured after 30 mins to 2 hrs by Sytox Green labelling based microscopic analysis; type: cell membranes; conditions: dose 32-64 µg/ml, time 0.5-2 hrs
Klebsiella pneumoniae [26] = assay: Antibacterial activity against Klebsiella pneumoniae ATCC 43816 infected in mouse urinary tract infection model at <10 mg/kg, iv administered every 4 hrs and measured after 26 hrs; type: functional, organism-based

T1 sequence (P08684 whole entry): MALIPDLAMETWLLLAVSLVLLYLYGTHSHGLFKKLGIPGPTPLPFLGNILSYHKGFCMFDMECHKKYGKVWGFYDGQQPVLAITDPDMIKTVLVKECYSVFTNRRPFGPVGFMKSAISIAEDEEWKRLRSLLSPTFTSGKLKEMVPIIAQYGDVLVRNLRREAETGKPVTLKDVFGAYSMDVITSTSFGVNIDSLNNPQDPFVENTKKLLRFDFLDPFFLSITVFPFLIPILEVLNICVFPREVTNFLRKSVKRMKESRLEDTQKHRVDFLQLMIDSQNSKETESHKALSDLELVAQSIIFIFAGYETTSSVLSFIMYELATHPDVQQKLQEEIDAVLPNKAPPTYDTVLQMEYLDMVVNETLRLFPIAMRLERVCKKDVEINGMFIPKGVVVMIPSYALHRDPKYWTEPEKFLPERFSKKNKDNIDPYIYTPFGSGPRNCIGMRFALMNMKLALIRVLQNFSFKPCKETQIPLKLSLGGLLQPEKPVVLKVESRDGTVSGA

In the case of `CC[C@H](C)[C@@H](NC(=O)[C@@H](NC(=O)[C@H](CCC(=O)O)NC(=O)[C@H](Cc1ccccc1)NC(=O)[C@@H](CCN)NC(=O)[C@H](CCN)NC(=O)[C@H](CO)NC(=O)[C@@H](Cc1c[nH]c2ccccc12)NC(=O)[C@@H](CO)NC(=O)CNC(=O)[C@@H](CCN)NC(=O)[C@H](NC(=O)[C@H](C)N)C(C)C)C(C)C)C(=O)N[C@@H](C)C(=O)O`, the MIC (Klebsiella pneumoniae [1]) was 4 µg/mL (≈ 2.73 µM), the MIC (Escherichia coli [2]) was 1 µg/mL (≈ 0.682 µM) and the MIC (Staphylococcus aureus [3]) was > 64 µg/mL. The Stability [4] was “Stable”, the Stability [5] was “Stable” and the Activity [6] was “Non-Toxic”. For the same molecule, the Activity (Cytochrome P450 3A4 [7]) was “Not Active”, the “inhibition (INH)” value (Cytochrome P450 3A4 [8]) was “Not Active” and the “inhibition (INH)” value (Cytochrome P450 2B6) was “Not Active”. For the same molecule, the “inhibition (INH)” value (Cytochrome P450 1A2) was “Not Active”, the microsomal CLint [9] was 2 µL/min/mg and the microsomal CLint [10] was 19 µL/min/mg. For the same molecule, the microsomal CLint [11] was 23 µL/min/mg, the Cmax [12] was 166 µg/mL and the Cmax [13] was 17 µg/mL. The AUC(0-t) at 24 h [14] was 82500 ng·h/mL, the clearance [15] was 2 mL/min/kg and the Vd [16] was 0.1 L/kg. It also gave an MIC (Citrobacter freundii) of 4 µg/mL (≈ 2.73 µM), an MIC (Klebsiella pneumoniae [17]) of 8 µg/mL (≈ 5.46 µM) and an MIC (Klebsiella aerogenes) of 8 µg/mL (≈ 5.46 µM). The MIC (Escherichia coli [18]) was 8 µg/mL (≈ 5.46 µM), the MIC (Morganella morganii) was > 32 µg/mL and the MIC (Proteus mirabilis) was > 32 µg/mL. For the same molecule, the MIC (Staphylococcus aureus [19]) was > 32 µg/mL, the Activity (Escherichia coli [20]) was “Active” and the Activity (Escherichia coli [21]) was “Active”. For the same molecule, the Activity (Klebsiella pneumoniae [22]) was “Active”, the Activity (Klebsiella pneumoniae [23]) was “Active” and the Activity (Klebsiella pneumoniae [24]) was “Active”. For the same molecule, the Activity (Klebsiella pneumoniae [25]) was “Active”, the pKd (Lipopolysaccharide (LPS)) was 4.45 and the Activity (Cell membrane) was “Active”. For the same molecule, the Activity (Klebsiella pneumoniae [26]) was “Active”.
